Experiments:
[1] = target: T1, NAMPT (Homo sapiens, UniProt P43490); assay: Time-Resolved Fluorescence Resonance Energy Transfer (TR-FRET) Binding Assay of NAMPT; settings: 6.8 nM NAMPT, 200 nM probe, equilibrated 3 hours, no substrates
Summary of the method: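 Compound was mixed with enzyme, probe and antibody and equilibrated 3 h at room temperature. TR-FRET read at Ex 337 nm, Em 520/495 nm. Ratios were normalized to controls and fitted to a four-parameter logistic equation for IC50.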

[2] = target: T1, NAMPT; assay: TR-FRET Binding Assay of NAMPT with PRPP; settings: 2 nM NAMPT, 2 nM probe, 200 µM PRPP and 2.5 mM ATP, equilibrated 16 hours
Description: Time-Resolved Fluorescence Resonance Energy Transfer (TR-FRET) Binding Assay of NAMPT with PRPP
Compound handling and data processing were identical to the assay in the absence of substrates (above). Final concentrations were 1× assay buffer, 2% DMSO, 2 nM NAMPT, 2 nM probe, 1 nM Tb-anti-His antibody (Invitrogen #PV5895), 200 µM PRPP and 2.5 mM ATP. Reactions were equilibrated for 16 hours prior to measurement to allow for potential enzymatic modification of test compounds.

[3] = system: PC3 cells; assay: NAMPT Cell Proliferation Assay (Cell Titer Glo); type: cell-based; settings: Homo sapiens, PC-3, 120 h, incubated 5 days, cell viability
Summary of the method: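 PC3 cells (500/well, RPMI with 10% heat-inactivated FBS) were exposed to 10-fold compound dilutions from […] for 5 days at 37 °C, 5% CO2. Viability was read with Cell Titer Glo; IC50 from sigmoidal fit of percent inhibition.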

T1 sequence (P43490 whole entry): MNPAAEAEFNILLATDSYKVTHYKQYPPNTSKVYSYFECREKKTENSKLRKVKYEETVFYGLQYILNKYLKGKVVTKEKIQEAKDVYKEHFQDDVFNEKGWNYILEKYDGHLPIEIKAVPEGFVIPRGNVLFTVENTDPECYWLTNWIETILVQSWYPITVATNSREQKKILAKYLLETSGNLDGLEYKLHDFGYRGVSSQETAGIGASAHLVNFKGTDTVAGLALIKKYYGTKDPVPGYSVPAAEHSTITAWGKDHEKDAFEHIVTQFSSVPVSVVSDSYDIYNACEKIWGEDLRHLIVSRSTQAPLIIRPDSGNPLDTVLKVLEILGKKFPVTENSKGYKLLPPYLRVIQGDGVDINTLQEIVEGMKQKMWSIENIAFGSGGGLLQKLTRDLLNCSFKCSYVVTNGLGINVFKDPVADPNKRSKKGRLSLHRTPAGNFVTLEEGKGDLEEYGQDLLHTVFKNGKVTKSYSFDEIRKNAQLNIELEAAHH

IC50 [1] | IC50 [2] | IC50 [3] | SMILES
1220 nM | 7.64 nM | 4680 nM | O=C(CC1CCOCC1)N1CCC(Oc2ccc(NC(=O)N3CC(c4cncc(F)c4)C3)cc2)CC1 [Example 3, 3-(5-fluoropyridin-3-yl)-N-(4-{[1-(tetrahydro-2H-pyran-4-ylacetyl)piperidin-4-yl]oxy}phenyl)azetidine-1-carboxamide]
19.7 nM | 0.195 nM | 14 nM | CC[C@H](C)C(=O)N1CCC(Oc2ccc(NC(=O)N3CC(c4cccnc4)C3)cc2)CC1 [Example 4, N-[4-({1-[(2S)-2-methylbutanoyl]piperidin-4-yl}oxy)phenyl]-3-(pyridin-3-yl)azetidine-1-carboxamide]
53.4 nM | 0.224 nM | 30.6 nM | O=C(CC(F)(F)F)N1CCC(Oc2ccc(NC(=O)N3CC(c4cccnc4)C3)cc2)CC1 [Example 6, 3-(pyridin-3-yl)-N-(4-{[1-(3,3,3-trifluoropropanoyl)piperidin-4-yl]oxy}phenyl)azetidine-1-carboxamide]
57.8 nM | 0.344 nM | 38.5 nM | CC(C)(O)C(=O)N1CCC(Oc2ccc(NC(=O)N3CC(c4cccnc4)C3)cc2)CC1 [Example 7, N-(4-{[1-(2-hydroxy-2-methylpropanoyl)piperidin-4-yl]oxy}phenyl)-3-(pyridin-3-yl)azetidine-1-carboxamide]
617 nM | 15.4 nM | 7030 nM | Cc1ccc(C2CN(C(=O)Nc3ccc(OC4CCN(C(=O)CC5CCOCC5)CC4)cc3)C2)cn1 [Example 8, 3-(6-methylpyridin-3-yl)-N-(4-{[1-(tetrahydro-2H-pyran-4-ylacetyl)piperidin-4-yl]oxy}phenyl)azetidine-1-carboxamide]
16.3 nM | 0.346 nM | 6.82 nM | CC[C@H](C)C(=O)N1CC=C(c2ccc(NC(=O)N3CC(c4cccnc4)C3)cc2)CC1 [Example 9, N-(4-{1-[(2S)-2-methylbutanoyl]-1,2,3,6-tetrahydropyridin-4-yl}phenyl)-3-(pyridin-3-yl)azetidine-1-carboxamide]
41.5 nM | 0.25 nM | 38.9 nM | O=C(Nc1ccc(C2=CCN(C(=O)[C@H]3CCCO3)CC2)cc1)N1CC(c2cccnc2)C1 [Example 10, 3-(pyridine-3-yl)-N-(4-{1-[(2R)-tetrahydrofuran-2-ylcarbonyl]-1,2,3,6-tetrahydropyridin-4-yl}phenyl)azetidine-1-carboxamide]
15.8 nM | 0.32 nM | 9.33 nM | O=C(Nc1ccc(C2=CCN(C(=O)[C@@H]3CCCO3)CC2)cc1)N1CC(c2cccnc2)C1 [Example 11, 3-(pyridine-3-yl)-N-(4-{1-[(2S)-tetrahydrofuran-2-ylcarbonyl]-1,2,3,6-tetrahydropyridin-4-yl}phenyl)azetidine-1-carboxamide]
32.1 nM | 0.43 nM | 10.1 nM | CC(C)(O)C(=O)N1CC=C(c2ccc(NC(=O)N3CC(c4cccnc4)C3)cc2)CC1 [Example 12, N-{4-[1-(2-hydroxy-2-methylpropanoyl)-1,2,3,6-tetrahydropyridin-4-yl]phenyl}-3-(pyridin-3-yl)azetidine-1-carboxamide]
201 nM | 0.374 nM | 514 nM | COC(=O)c1ccc(NC(=O)N2CC(c3cccnc3)C2)cc1 [Example 13, methyl 4-({[3-(pyridin-3-yl)azetidin-1-yl]carbonyl}amino)benzoate]
879 nM | 0.178 nM | 6680 nM | N#Cc1ccc(NC(=O)N2CC(c3cccnc3)C2)cc1 [Example 14, N-(4-cyanophenyl)-3-(pyridin-3-yl)azetidine-1-carboxamide]
307 nM | 0.917 nM | 99.9 nM | CC(C)(C)OC(=O)N1CCC(CCCCNC(=O)N2CC(c3cccnc3)C2)CC1 [Example 15, tert-butyl 4-[4-({[3-(pyridin-3-yl)azetidin-1-yl]carbonyl}amino)butyl]piperidine-1-carboxylate]
16.9 nM | 0.568 nM | 36.8 nM | CC(C)(C)CC(=O)N1CC=C(c2ccc(NC(=O)N3CC(c4cccnc4)C3)cc2)CC1 [Example 17, N-{4-[1-(3,3-dimethylbutanoyl)-1,2,3,6-tetrahydropyridin-4-yl]phenyl}-3-(pyridin-3-yl)azetidine-1-carboxamide]
36.7 nM | 0.294 nM | 65.8 nM | O=C(CC(F)(F)F)N1CC=C(c2ccc(NC(=O)N3CC(c4cccnc4)C3)cc2)CC1 [Example 18, 3-(pyridin-3-yl)-N-{4-[1-(3,3,3-trifluoropropanoyl)-1,2,3,6-tetrahydropyridin-4-yl]phenyl}azetidine-1-carboxamide]
153 nM | 0.86 nM | 192 nM | O=C(CCC(F)(F)F)N1CC=C(c2ccc(NC(=O)N3CC(c4cccnc4)C3)cc2)CC1 [Example 19, 3-(pyridin-3-yl)-N-{4-[1-(4,4,4-trifluorobutanoyl)-1,2,3,6-tetrahydropyridin-4-yl]phenyl}azetidine-1-carboxamide]
68.4 nM | 0.5 nM | 123 nM | COCC(=O)N1CC=C(c2ccc(NC(=O)N3CC(c4cccnc4)C3)cc2)CC1 [Example 20, N-{4-[1-(methoxyacetyl)-1,2,3,6-tetrahydropyridin-4-yl]phenyl}-3-(pyridin-3-yl)azetidine-1-carboxamide]
32.5 nM | 0.381 nM | 33.7 nM | CSCC(=O)N1CC=C(c2ccc(NC(=O)N3CC(c4cccnc4)C3)cc2)CC1 [Example 21, N-(4-{1-[(methylsulfanyl)acetyl]-1,2,3,6-tetrahydropyridin-4-yl}phenyl)-3-(pyridin-3-yl)azetidine-1-carboxamide]
143 nM | 0.63 nM | 276 nM | CCOCC(=O)N1CC=C(c2ccc(NC(=O)N3CC(c4cccnc4)C3)cc2)CC1 [Example 22, N-{4-[1-(ethoxyacetyl)-1,2,3,6-tetrahydropyridin-4-yl]phenyl}-3-(pyridin-3-yl)azetidine-1-carboxamide]
97.8 nM | 0.551 nM | 195 nM | COCCOCC(=O)N1CC=C(c2ccc(NC(=O)N3CC(c4cccnc4)C3)cc2)CC1 [Example 23, N-(4-{1-[(2-methoxyethoxy)acetyl]-1,2,3,6-tetrahydropyridin-4-yl}phenyl)-3-(pyridin-3-yl)azetidine-1-carboxamide]
170 nM | 0.988 nM | 113 nM | CSCCC(=O)N1CC=C(c2ccc(NC(=O)N3CC(c4cccnc4)C3)cc2)CC1 [Example 24, N-(4-{1-[3-(methylsulfanyl)propanoyl]-1,2,3,6-tetrahydropyridin-4-yl}phenyl)-3-(pyridin-3-yl)azetidine-1-carboxamide]
37.4 nM | 0.362 nM | 27.1 nM | O=C(Nc1ccc(C2=CCN(C(=O)C3CC3)CC2)cc1)N1CC(c2cccnc2)C1 [Example 25, N-{4-[1-(cyclopropylcarbonyl)-1,2,3,6-tetrahydropyridin-4-yl]phenyl}-3-(pyridin-3-yl)azetidine-1-carboxamide]
73.6 nM | 0.724 nM | 172 nM | O=C(CC1CC1)N1CC=C(c2ccc(NC(=O)N3CC(c4cccnc4)C3)cc2)CC1 [Example 26, N-{4-[1-(cyclopropylacetyl)-1,2,3,6-tetrahydropyridin-4-yl]phenyl}-3-(pyridin-3-yl)azetidine-1-carboxamide]
13 nM | 0.243 nM | 9.2 nM | CC(C)C(=O)N1CC=C(c2ccc(NC(=O)N3CC(c4cccnc4)C3)cc2)CC1 [Example 27, N-{4-[1-(2-methylpropanoyl)-1,2,3,6-tetrahydropyridin-4-yl]phenyl}-3-(pyridin-3-yl)azetidine-1-carboxamide]
77.2 nM | 0.218 nM | 64.2 nM | O=C(Nc1ccc(OC2CN(C(=O)[C@H]3CCCO3)C2)cc1)N1CC(c2cccnc2)C1 [Example 28, 3-(pyridin-3-yl)-N-[4-({1-[(2R)-tetrahydrofuran-2-ylcarbonyl]azetidin-3-yl}oxy)phenyl]azetidine-1-carboxamide]
53.4 nM | 0.243 nM | 66.1 nM | O=C(Nc1ccc(OC2CN(C(=O)[C@@H]3CCCO3)C2)cc1)N1CC(c2cccnc2)C1 [Example 29, 3-(pyridin-3-yl)-N-[4-({1-[(2S)-tetrahydrofuran-2-ylcarbonyl]azetidin-3-yl}oxy)phenyl]azetidine-1-carboxamide]
69.4 nM | 0.255 nM | 125 nM | CC(C)(O)C(=O)N1CC(Oc2ccc(NC(=O)N3CC(c4cccnc4)C3)cc2)C1 [Example 30, N-(4-{[1-(2-hydroxy-2-methylpropanoyl)azetidin-3-yl]oxy}phenyl)-3-(pyridin-3-yl)azetidine-1-carboxamide]
40.6 nM | 0.33 nM | 38.9 nM | O=C(Nc1ccc(OC2CCN(C(=O)[C@@H]3CCCO3)CC2)cc1)N1CC(c2cccnc2)C1 [Example 31, 3-(pyridin-3-yl)-N-[4-({1-[(2S)-tetrahydrofuran-2-ylcarbonyl]piperidin-4-yl}oxy)phenyl]azetidine-1-carboxamide]

Reference: US9296723B2, “NAMPT inhibitors” (AbbVie Inc., priority 2012, dated 2016)
